The record followed here is patent US6497862B2, “Composition for inhibiting body odor and uses thereof” (Kabushiki Kaisha Hayashibara, priority 2000, dated 2002).

Assay [1] can be described thus: Panel test of smell, 9-hexadecanoic acid at 37° C. (Experiment 6). The note with it: 37° C., 9,000 lux. Set-up: key: +++: the same or higher level of odor; ++: slightly lower level of odor; +: clearly lower level of odor than that of the control system. The source says: (§1) Upon the HSG samples, the level of a body-odor-like smell was examined on a panel test consisting of six professional panels; the panels directly smelled the samples from each glass vial and judged the level of the smells for each samples with test saccharides based on the following four ranks, i.e., the same or higher level of odor (+++), slightly lower level of odor (++), clearly lower level of odor (+), and odorless (−) as compared with the control system. Summing up the data from the panels, the samples tested were totally evaluated.
One hundred milligrams of 9-hexadecanoic acid as a fatty acid, 500 mg of a cellulose powder, and 1.25 ml of 0.12 M phosphate buffer (pH 6.0) were placed in a 20-ml glass vial. To the glass vial was added 100 mg of either of trehalose, maltitol and sucrose as a test saccharide, followed by sealing with a butyl rubber cap for use as a test system. As a control system, there provided a glass vial with no test saccharide that differed from the test systems only in this point. In both the test- and control-systems, they were respectively provided in doublet.
These glass vials were allowed to stand in a 37° C.-thermostatic-bath under the irradiation of 9,000 lux by a fluorescent lamp. At 3-days of standing, one of each pair of the vials containing the same composition, and 7-days of standing, the other vial of each resting pair of the vials were transferred to a heat block, which had been preheated to 80° C. and then kept therein for five minutes, followed by analyzing the content of 2-nonenal in HSG in each vial by GC similarly as in Experiment 2. After the collection of HSG, the smell from glass vials was evaluated by panel test in accordance with the method in Experiment 2.

The nature of assay [2]: Dispersion of 2-nonenal, GC of HSG (Experiment 4). The note with it: 10 mg 2-nonenal + 100 mg test saccharide, 80° C. 5 min (dispersion test); control 8.67. As for the experimental part:
Ten milligrams of 2-nonenal, 500 mg of a cellulose powder, and 1.25 ml of 0.12 M phosphate buffer (pH 6.0) were placed in a 20-ml glass vial. To the glass vial was added 100 mg of either of trehalose, maltitol and sucrose as a test saccharide, followed by sealing with a butyl rubber cap. As a control system, there provided a glass vial with no test saccharide that differed from the test systems only in this point. These glass vials were kept in a heat block, preheated to 80° C. After 5-min standing, the glass vials were sampled by two milliliters of HSG with a gas syringe. The content of 2-nonenal in the sampled HSG was measured by GC in accordance with the method in Experiment 2.

Assay [3] is described as follows: Decomposition of fatty acids by heating, linoleic acid (Experiment 5). The note with it: heated at 105° C. for one hour with 100 mg test saccharide; control 60.0. As for the experimental part:
(§2) One hundred milligrams of linoleic acid or 9-hexadecanoic acid as a fatty acid, 500 mg of a cellulose powder, and 1.25 ml of 0.12 M phosphate buffer (pH 6.0) were placed in a 20-ml glass vial. To the glass vial was added 100 mg of either of trehalose, maltitol and sucrose as a test saccharide, followed by sealing with a butyl rubber cap. As a control system, there provided a glass vial with no test saccharide that differed from the test systems only in this point. These vials were heated at 105° C. for one hour. Another glass vial with no heat treatment, which contained the same ingredients as shown in the above, was provided that differed from the test systems only in that it had no heat treatment.
(§3) The above test systems with or without heat treatment and the control system were subjected to the following methyl esterification reaction and analyzed on GC to measure the content of fatty acids; To each glass vial was added 20 ml of a mixture solution of chloroform and methanol (=2:1 by volume) to extract fatty acids, and one milliliter of each resulting extract was collected in a 10-ml eggplant-shape flask, concentrated, and dried in vacuo. […]
(§4) Two microliters of each of the resulting n-hexane layers were analyzed on GC using “GAS CHROMATOGRAPH GC-14A”, a GC apparatus, commercialized by Shimadzu Corporation, Tokyo, Japan; and “CAPILLARY COLUMN FFAP”, an analysis column having an inner diameter of 0.25 mm, a length of 30 m, and a membrane thickness of 0.25 μm, commercialized by GL Sciences Inc., Tokyo, Japan, under the conditions of using helium gas as a carrier at a flow rate of 1 ml/min, at a temperature of 250° C. as a sample injection temperature, a column thermostatic bath temperature being kept at 80° C. for five minutes and then increased up to 240° C. at a rate of 5° C./min, and a hydrogen flame ionization detector for detecting fatty acids. Based on the peak area of the obtained gas chromatograms, it was calculated the content of fatty acids, i.e., linoleic acid and 9-hexadecanoic acid, before or after the heat treatment in the test- and control-systems. […]

A short description of assay [4]: Panel test of body-odor-like smell, oleic acid heated (Experiment 1). The arrangement: key: +++: the same or higher level of odor; ++: slightly lower level of odor; +: clearly lower level of odor than that of the control system. The note with it: oleic acid heated at 105° C. for one hour; six panels, compared with control system. On the procedure: One hundred milligrams of oleic acid as a fatty acid, 500 mg of cellulose powder, and 1.25 ml of 0.12 M phosphate buffer (pH 6.0) were placed in a 20-ml glass vial. To the glass vial were added 100 mg of either of crystalline trehalose hydrate, crystalline maltitol anhydride, crystalline sorbitol anhydride, crystalline sucrose anhydride, crystalline maltose anhydride, and crystalline neotrehalose hydride as test saccharides (throughout Experiments 1 to 6, these saccharides are designated as “trehalose”, “maltitol”, sorbitol”, “sucrose”, “maltose”, and “neotrehalose”, respectively), followed by sealing the glass vial with a butyl rubber. As a control system, there provided a glass vial, with no a test saccharide, which differed from the test glass vial on this point. These glass vials were heated at 105° C. for one hour, cooled to ambient temperature, and kept in an aluminum heat-block (abbreviated as “heat block, hereinafter”), which had been preheated to 80° C. After 5-minutes standing, two milliliters of a head space gas (abbreviated as “HSG”, hereinafter) were collected from each glass vial with a syringe.
as §1

The nature of assay [5]: Decomposition of fatty acids by heating, 9-hexadecanoic acid (Experiment 5). The note with it: heated at 105° C. for one hour with 100 mg test saccharide; control 38.1. As for the experimental part: as §2, §3, §4

Take `OC[C@@H](O)[C@@H](O[C@H]1O[C@H](CO)[C@@H](O)[C@H](O)[C@H]1O)[C@H](O)[C@@H](O)CO` [Maltitol, maltitol]: the “Evaluation of panel test” value in assay [1] (7-days of standing) was “+”; in assay [4], “++”. Moreover, in assay [2], the “Content of 2-nonenal in HSG” value was 8.27 µg/mL. In addition, the “Decomposition percentage, Linoleic acid” value in assay [3] is 33.4%. In addition, the “Decomposition percentage, 9-Hexadecanoic acid” value in assay [5] was determined as 14.7%.
On to `OC[C@H]1O[C@@](CO)(O[C@H]2O[C@H](CO)[C@@H](O)[C@H](O)[C@H]2O)[C@@H](O)[C@@H]1O` [Sucrose, sucrose], for which the “Evaluation of panel test” value in assay [1] (3-days of standing) was “++”; in assay [1] (7-days of standing), “+++”; in assay [4], “+++”. The “Content of 2-nonenal in HSG” value in assay [2] is 8.70 µg/mL. Besides, the “Decomposition percentage, Linoleic acid” value in assay [3] came out at 58.0%. In assay [5], the “Decomposition percentage, 9-Hexadecanoic acid” value is given as 38.5%.
With `OC[C@H]1O[C@H](O[C@H]2O[C@H](CO)[C@@H](O)[C@H](O)[C@H]2O)[C@H](O)[C@@H](O)[C@@H]1O` [Trehalose, trehalose], the “Evaluation of panel test” value in assay [1] (7-days of standing) and in assay [4] was “+” throughout. The “Content of 2-nonenal in HSG” value in assay [2] is 8.60 µg/mL. In addition, the “Decomposition percentage, Linoleic acid” value in assay [3] worked out at 25.2%. Moreover, in assay [5], the “Decomposition percentage, 9-Hexadecanoic acid” value was determined as 13.2%.
